The values below come from ChEMBL document CHEMBL4373717, “Coumarin-containing hybrids and their anticancer activities” (Eur J Med Chem, 2019).

What all share (format): functional, cell-based
In test [1] the test system is MCF7. Kind of test: Cytotoxicity against human MCF7 cells assessed as reduction in cell viability after 68 hrs by MTT assay. The conditions noted are these: MCF7, 68 h.
The subject of test [2] is HeLa. Nature of the test: Cytotoxicity against human HeLa cells assessed as reduction in cell viability after 68 hrs by MTT assay.
Test [3] concerns A549. Kind of test: Cytotoxicity against human A549 cells assessed as reduction in cell viability after 68 hrs by MTT assay. The following applies: A549, 68 h.
The subject of test [4] is K562. Kind of test: Cytotoxicity against human K562 cells assessed as reduction in cell viability after 68 hrs by MTT assay. The conditions noted are these: K562, 68 h.
The test system of test [5] is A549. Kind of test: Cytotoxicity against human A549 cells assessed as reduction in cell viability after 24 hrs by MTT assay. The following applies: A549, 24 h.
For test [6], the system named is MDA-MB-231. Kind of test: Cytotoxicity against human MDA-MB-231 cells assessed as reduction in cell viability after 24 hrs by MTT assay.
Test [7] relates to 769-P. Nature of the test: Anticancer activity against human 769-P cells by MTT assay.
Test [8] deals with MDA-MB-231. Kind of test: Anticancer activity against human MDA-MB-231 cells by MTT assay.
For test [9], the system named is HepG2. Kind of test: Anticancer activity against human HepG2 cells by MTT assay.
For test [10], the system named is MCF7. Kind of test: Cytotoxicity against human MCF7 cells assessed as reduction in cell viability after 48 hrs by MTT assay. The following applies: MCF7, 48 h.

For the molecule `CCOc1cc(Br)cc2c1OCC([N+](=O)[O-])=C2`, the half-inhibitory concentration (IC50) in test [1], in [2], in test [3] and in test [4] was 0.95 to 6.43 µM each time.

On to `COc1ccccc1-c1cc(-c2cc3ccccc3oc2=O)nc(Cc2ccc(F)cc2)n1`, for which the IC50 in test [5] fell in the range of 2.15 to 28.6 µM; in test [6] (Homo sapiens, MDA-MB-231, 24 h) it was 2.15 to 28.6 µM.

As to `COc1ccccc1NC(=O)Nc1ccc(Cc2c(C)c3cc(C(C)(C)C)c(O)cc3oc2=O)cn1`, the half-maximal inhibitory concentration (IC50) in test [1], in [2], in test [3] and in test [4] was 1.66 to 19.4 µM each time.

As for `O=c1ccc2ccc(OCCCn3cc(COc4ccc5ccc(=O)oc5c4)nn3)cc2o1`, the 50% inhibitory concentration (IC50) in test [7], in [8] and in test [9] was 0.383 to 13.6 µM each time.

Take `O=c1oc2ccccc2cc1-c1cc(-c2cccc(Cl)c2)nc(Cc2ccc(F)cc2)n1`: the IC50 lay within 2.15 to 28.6 µM in [5] and 2.15 to 28.6 µM in [6] (Homo sapiens, MDA-MB-231, 24 h).

As for `Cc1cc(=O)oc2cc(OCc3cn(CCCCCCCCCOc4ccc5ccc(=O)oc5c4)nn3)ccc12`, the IC50 in test [7], in [8] and in test [9] was 0.383 to 13.6 µM each time.

Consider `O=c1oc2ccccc2cc1-c1cc(-c2ccccc2Br)nc(Cc2ccc(F)cc2)n1`, for which the half-maximal inhibitory concentration (IC50) in test [5] lay in the range of 2.15 to 28.6 µM; in test [6] (Homo sapiens, MDA-MB-231, 24 h) it was 2.15 to 28.6 µM.

Turning to `O=c1oc2ccccc2cc1-c1cc(-c2ccccc2Cl)nc(Cc2ccc(F)cc2)n1`, the concentration for half-maximal inhibition (IC50) in test [5] fell in the range of 2.15 to 28.6 µM; in [6] (Homo sapiens, MDA-MB-231, 24 h), 2.15 to 28.6 µM.

Regarding `Cc1cc(=O)oc2cc(OCc3cn(CCCCCCCCCCOc4ccc5ccc(=O)oc5c4)nn3)ccc12`, the IC50 in [7], in test [8] and in test [9] was 0.383 to 13.6 µM throughout.

Take `Cc1cc(-c2cc3cc(Br)ccc3oc2=O)n(-c2nc(-c3ccc(Cl)cc3)cs2)n1`: the half-maximal inhibitory concentration (IC50) in test [10] is 4.03 to 31.5 µM.

`Cc1cc(=O)oc2cc(OCc3cn(CCCCOc4ccc5ccc(=O)oc5c4)nn3)ccc12`: the IC50 in test [7], in test [8] and in test [9] was 0.383 to 13.6 µM in each case.

As to `Cc1cc(=O)oc2cc(OCc3cn(CCCOc4ccc5ccc(=O)oc5c4)nn3)ccc12`, the IC50 in test [7], in test [8] and in [9] was 0.383 to 13.6 µM in each case.

As to `Cc1ccccc1-c1cc(-c2cc3ccccc3oc2=O)nc(Cc2ccc(F)cc2)n1`, the half-inhibitory concentration (IC50) in test [5] was in the range of 2.15 to 28.6 µM; in test [6] (Homo sapiens, MDA-MB-231, 24 h) it was 2.15 to 28.6 µM.

As for `Cc1c(Cc2ccc(NC(=O)Nc3ccc(F)c(Cl)c3)nc2)c(=O)oc2cc(O)c(C(C)(C)C)cc12`, the concentration for half-maximal inhibition (IC50) in test [1], in [2], in test [3] and in test [4] was 1.66 to 19.4 µM each time.

In the case of `Cc1cccc(-c2cc(-c3cc4ccccc4oc3=O)nc(Cc3ccc(F)cc3)n2)c1`, the 50% inhibitory concentration (IC50) in test [5] was in the range of 2.15 to 28.6 µM; in test [6] (Homo sapiens, MDA-MB-231, 24 h), 2.15 to 28.6 µM.

As to `COc1ccc(-c2cc(-c3cc4ccccc4oc3=O)nc(Cc3ccc(F)cc3)n2)cc1`, the IC50 is 2.23 µM in test [5] and 2.23 µM in test [6] (Homo sapiens, MDA-MB-231, 24 h).

With `Cc1cccc(C)c1NC(=O)c1ccc(-n2cc(COc3cc(=O)oc4ccccc34)nn2)cc1`, in [6] (mda-mb-231), the IC50 was in the range of 0.03 to 91.6 µM.

Turning to `COc1ccc(OC)c(NC(=O)c2ccc(-n3cc(COc4cc(=O)oc5ccccc45)nn3)cc2)c1`, the concentration for half-maximal inhibition (IC50) in test [6] (mda-mb-231) lay within 0.03 to 91.6 µM.

`Cc1ccc(-c2cc(-c3cc4ccccc4oc3=O)nc(Cc3ccc(F)cc3)n2)cc1`: the IC50 is 2.15 to 28.6 µM in test [5] and 2.15 to 28.6 µM in test [6] (Homo sapiens, MDA-MB-231, 24 h).

For `O=C(Nc1ccccc1)c1ccc(-n2cc(COc3cc(=O)oc4ccccc34)nn2)cc1`, the 50% inhibitory concentration (IC50) in test [6] (mda-mb-231) is 0.03 to 91.6 µM.

As to `O=c1oc2ccccc2cc1-c1cc(-c2cccc(Br)c2)nc(Cc2ccc(F)cc2)n1`, the concentration for half-maximal inhibition (IC50) is 2.15 to 28.6 µM in [5] and 2.15 to 28.6 µM in test [6] (Homo sapiens, MDA-MB-231, 24 h).

As for `COC(=O)c1cccc(NC(=O)c2ccc(-n3cc(COc4cc(=O)oc5ccccc45)nn3)cc2)c1`, the IC50 in test [6] (mda-mb-231) was in the range of 0.03 to 91.6 µM.

`Cc1cc(-c2cc3cc(Br)ccc3oc2=O)n(-c2nc(-c3ccccc3)cs2)n1`: the IC50 in test [10] was in the range of 4.03 to 31.5 µM.

Turning to `O=c1ccc2ccc(OCCCCCCn3cc(COc4ccc5ccc(=O)oc5c4)nn3)cc2o1`, the half-inhibitory concentration (IC50) in test [7], in [8] and in [9] was 0.383 to 13.6 µM in each case.

For `CCc1ccccc1NC(=O)c1ccc(-n2cc(COc3cc(=O)oc4ccccc34)nn2)cc1`, the IC50 in [6] (mda-mb-231) was 0.03 to 91.6 µM.

As to `Cc1cc(=O)oc2cc(OCc3cn(CCCCCCOc4ccc5ccc(=O)oc5c4)nn3)ccc12`, the IC50 in test [7], in [8] and in test [9] was 0.383 to 13.6 µM in each case.

For the molecule `Cc1ccc(NC(=O)Nc2ccc(Cc3c(C)c4cc(C(C)(C)C)c(O)cc4oc3=O)cn2)cc1C`, the IC50 in [1], in test [2], in [3] and in test [4] was 1.66 to 19.4 µM each time.

Regarding `O=c1oc2ccccc2cc1-c1cc(-c2ccc(Br)cc2)nc(Cc2ccc(F)cc2)n1`, the IC50 in test [5] fell in the range of 2.15 to 28.6 µM; in [6] (Homo sapiens, MDA-MB-231, 24 h), 2.15 to 28.6 µM.
